“Also recorded” adds a separate entry of the source. Where two headings read alike, the source gives them in different places.
Experiments:
[1] = literature; cited from earlier work
HIV-infected individuals = conditions: 250 mg twice daily, 10 weeks; cited from earlier work
[2] = test system: patients with major depressive illness, bipolar disorder, or schizoaffective disorder; conditions: cited from earlier work
[3] = Solubility in simulated gastric fluid USP; format: physicochemical
Solubility in methanol = conditions: product of Examples 2 and 3
[4] = Solubility in simulated intestinal fluid USP; format: physicochemical
[5] = Solubility of lithium valproate in water / aqueous solutions
[6] = Hygroscopicity and storage stability of the solid; format: physicochemical
deacetylase = conditions: dose between 20 and 40 mg/kg, patients with cervical cancer; cited from earlier work
[7] = mean duration of at least 1 year of administration

CCCC(CCC)C(=O)[O-].[Na+] [Sodium valproate]
hygroscopicity [1]: hygroscopic

CCCC(CCC)C(=O)O [Valproic acid, 2-propylpentanoic acid]
safety and tolerability (HIV-infected individuals): safe and well tolerated | mean change in GAS ratings ([2]; bipolar and schizoaffective patients, average of 11 to 14 months of treatment): 35.0 | patients with improved mean GAS scores, bipolar disorder [2, 7]: 12 of 12 | patients with improved mean GAS scores, depressed patients [2, 7]: 7 of 9 | patients with improved mean GAS scores, schizoaffective states [2, 7]: 11 of 14 | solubility in water [1]: very slightly soluble

CCCC(CCC)C(=O)O [divalproex sodium]
hygroscopicity [1]: not hygroscopic

CCCC(CCC)C(=O)[O-].[Li+] [lithium valproate]
solubility in simulated gastric fluid USP [3]: soluble | solubility in methanol (Solubility in methanol): very soluble | solubility in simulated intestinal fluid USP [4]: soluble | solubility of lithium valproate in water ([5]; portions added to 1 mL water until undissolved): about 250 mg of lithium valproate per mL of water | solubility in water ([5]; product of Examples 2 and 3): very soluble | pH of aqueous solutions ([5]; water or aqueous solutions): near neutral pH | hygroscopicity [6]: not hygroscopic or deliquescent; also recorded: non-hygroscopic | stability during storage [6]: stable during storage

2-propylpentanoic acid magnesium salt [magnesium valproate]
effect on deacetylase activity in tumor tissues (deacetylase): inhibits deacetylase activity
